Legend:
Type in all cases: in vivo
[1] = tested on: Kochia (Kochia scoparia); assay: Test A preemergence; settings: Bassia scoparia, pre-emergence, 240 h
Outline: (§1)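 Visual injury scores from 0, no effect, to 100, complete control, were assigned versus untreated controls roughly 10 d after treatment in the greenhouse. Test chemicals, formulated with surfactant in a non-phytotoxic solvent, were applied to planted seeds as a preemergence soil spray or postemergence to one- to two-leaf plants 2 to 10 cm tall, in loam–sand soil.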

[2] = tested on: ryegrass, Italian (Italian ryegrass, Lolium multiflorum); assay: Test A preemergence; settings: Lolium multiflorum, pre-emergence, 240 h
Outline: as §1

[3] = tested on: barnyardgrass (Echinochloa crus-galli); assay: Test A preemergence; settings: Echinochloa crus-galli, pre-emergence, 240 h
Outline: as §1

[4] = tested on: ragweed (common ragweed, Ambrosia elatior); assay: Test A preemergence; settings: Ambrosia artemisiifolia, pre-emergence, 240 h
Outline: as §1

[5] = tested on: pigweed (Amaranthus retroflexus); assay: Test A preemergence; settings: Amaranthus retroflexus, pre-emergence, 240 h
[6] = tested on: giant foxtail (Setaria faberii); assay: Test A preemergence; settings: Setaria faberi, pre-emergence, 240 h
Outline: as §1

[7] = tested on: Kochia (Kochia scoparia); assay: Test A postemergence; settings: Bassia scoparia, post-emergence, 240 h, 125 g ai/ha, postemergence, visual injury rating after approximately 10 d; read-out: Kochia plant response rating (0 to 100 scale, 0 no effect, 100 complete control)
Outline: as §1

[8] = tested on: blackgrass (Alopecurus myosuroides); assay: Test A postemergence; settings: Alopecurus myosuroides, post-emergence, 240 h, 125 g ai/ha, postemergence, visual injury rating after approximately 10 d; read-out: Blackgrass plant response rating (0 to 100 scale, 0 no effect, 100 complete control)
Outline: as §1

[9] = tested on: ryegrass, Italian (Italian ryegrass, Lolium multiflorum); assay: Test A postemergence; settings: Lolium multiflorum, post-emergence, 240 h, 125 g ai/ha, postemergence, visual injury rating after approximately 10 d; read-out: Ryegrass, Italian plant response rating (0 to 100 scale, 0 no effect, 100 complete control)
Outline: as §1

[10] = tested on: barnyardgrass (Echinochloa crus-galli); assay: Test A postemergence; settings: Echinochloa crus-galli, post-emergence, 240 h, 125 g ai/ha, postemergence, visual injury rating after approximately 10 d; read-out: Barnyardgrass plant response rating (0 to 100 scale, 0 no effect, 100 complete control)
Outline: as §1

[11] = tested on: wheat (Triticum aestivum); assay: Test A postemergence; settings: Triticum aestivum, post-emergence, 240 h, 125 g ai/ha, postemergence, visual injury rating after approximately 10 d; read-out: Wheat plant response rating (0 to 100 scale, 0 no effect, 100 complete control)
Outline: as §1

[12] = tested on: corn (Zea mays); assay: Test A postemergence; settings: Zea mays, post-emergence, 240 h, 125 g ai/ha, postemergence, visual injury rating after approximately 10 d; read-out: Corn plant response rating (0 to 100 scale, 0 no effect, 100 complete control)
Outline: as §1

[13] = tested on: ragweed (common ragweed, Ambrosia elatior); assay: Test A postemergence; settings: Ambrosia artemisiifolia, post-emergence, 240 h, 125 g ai/ha, postemergence, visual injury rating after approximately 10 d; read-out: Ragweed plant response rating (0 to 100 scale, 0 no effect, 100 complete control)
Outline: as §1

[14] = tested on: Galium (catchweed bedstraw, Galium aparine); assay: Test A postemergence; settings: Galium, post-emergence, 240 h, 125 g ai/ha, postemergence, visual injury rating after approximately 10 d; read-out: Galium plant response rating (0 to 100 scale, 0 no effect, 100 complete control)
Outline: as §1

[15] = tested on: pigweed (Amaranthus retroflexus); assay: Test A postemergence; settings: Amaranthus retroflexus, post-emergence, 240 h, 125 g ai/ha, postemergence, visual injury rating after approximately 10 d; read-out: Pigweed plant response rating (0 to 100 scale, 0 no effect, 100 complete control)
Outline: as §1

[16] = tested on: giant foxtail (Setaria faberii); assay: Test A postemergence; settings: Setaria faberi, post-emergence, 240 h, 125 g ai/ha, postemergence, visual injury rating after approximately 10 d; read-out: Foxtail, Giant plant response rating (0 to 100 scale, 0 no effect, 100 complete control)
Outline: as §1

## CC(C)c1cccc([C@H]2CN(C)C(=O)[C@@H]2C(=O)Nc2ccc(F)cc2F)c1 [Compound 821]
[1]; 125 g ai/ha, preemergence, 0 to 100 scale where 0 is no effect and 100 is complete control, read-out: Kochia plant response rating
  pest or weed control at 125 g/ha: 70%
[1]; 500 g ai/ha, Preemergence, visual injury vs untreated controls after approximately 10 d, read-out: Kochia plant response rating (0 to 100 scale where 0 is no effect and 100 is complete control)
  pest or weed control at 500 g/ha: 90%
[2]; 125 g ai/ha, preemergence, 0 to 100 scale where 0 is no effect and 100 is complete control, read-out: Ryegrass, Italian plant response rating
  pest or weed control at 125 g/ha: 80%
[2]; 500 g ai/ha, Preemergence, visual injury vs untreated controls after approximately 10 d, read-out: Ryegrass, Italian plant response rating (0 to 100 scale where 0 is no effect and 100 is complete control)
  pest or weed control at 500 g/ha: 90%
[3]; 125 g ai/ha, preemergence, 0 to 100 scale where 0 is no effect and 100 is complete control, read-out: Barnyardgrass plant response rating
  pest or weed control at 125 g/ha: 90%
[3]; 500 g ai/ha, Preemergence, visual injury vs untreated controls after approximately 10 d, read-out: Barnyardgrass plant response rating (0 to 100 scale where 0 is no effect and 100 is complete control)
  pest or weed control at 500 g/ha: 90%
[4]; 125 g ai/ha, preemergence, 0 to 100 scale where 0 is no effect and 100 is complete control, read-out: Ragweed plant response rating
  pest or weed control at 125 g/ha: 0%
[4]; 500 g ai/ha, Preemergence, visual injury vs untreated controls after approximately 10 d, read-out: Ragweed plant response rating (0 to 100 scale where 0 is no effect and 100 is complete control)
  pest or weed control at 500 g/ha: 0%
[5]; 125 g ai/ha, preemergence, 0 to 100 scale where 0 is no effect and 100 is complete control, read-out: Pigweed plant response rating
  pest or weed control at 125 g/ha: 50%
[5]; 500 g ai/ha, Preemergence, visual injury vs untreated controls after approximately 10 d, read-out: Pigweed plant response rating (0 to 100 scale where 0 is no effect and 100 is complete control)
  pest or weed control at 500 g/ha: 50%
[6]; 125 g ai/ha, preemergence, 0 to 100 scale where 0 is no effect and 100 is complete control, read-out: Foxtail, Giant plant response rating
  pest or weed control at 125 g/ha: 90%
[6]; 500 g ai/ha, Preemergence, visual injury vs untreated controls after approximately 10 d, read-out: Foxtail, Giant plant response rating (0 to 100 scale where 0 is no effect and 100 is complete control)
  pest or weed control at 500 g/ha: 100%
[7]
  pest or weed control at 125 g/ha: 30%
[8]
  pest or weed control at 125 g/ha: 70%
[9]
  pest or weed control at 125 g/ha: 20%
[10]
  pest or weed control at 125 g/ha: 90%
[11]
  plant injury at 125 g/ha: 0%
[12]
  plant injury at 125 g/ha: 40%
[13]
  pest or weed control at 125 g/ha: 0%
[14]
  pest or weed control at 125 g/ha: 50%
[15]
  pest or weed control at 125 g/ha: 0%
[16]
  pest or weed control at 125 g/ha: 80%

From patent publication US12077503B2, “Substituted cyclic amides and their use as herbicides” (FMC CORPORATION, priority 2015, dated 2024)
